# According to article PMC9521575, “Multiple tachykinins and their receptors characterized in the gastropod mollusk Pacific abalone: Expression, signaling cascades, and potential role in regulating lipid metabolism” (Frontiers in Endocrinology, 2022):
# Non-standard residues stand in square brackets, D forms with d. Residues, ends and D or L forms follow the SMILES beside them. No end group written: not given here. pGlu = O=C1CC[C@@H](C(=O)O)N1
# B1: Hdh-TK2-2 (peptide)
# peptide: KPHFGFHGSR-NH2
# B2: Hdh-TK2-1 (peptide)
# peptide: GRHFGFVGSR-NH2
# B3: Hdh-TK1-1 (peptide)
# peptide: FGYVGSR-NH2
# B4: Hdh-TK1-2 (peptide)
# peptide: TELGFGYVGSR-NH2
# B5: Hdh-TK1-3 (peptide)
# peptide: [pGlu]PHFGFHGVR-NH2
# SMILES: CC(C)[C@H](NC(=O)CNC(=O)[C@H](Cc1c[nH]cn1)NC(=O)[C@H](Cc1ccccc1)NC(=O)CNC(=O)[C@H](Cc1ccccc1)NC(=O)[C@H](Cc1c[nH]cn1)NC(=O)[C@@H]1CCCN1C(=O)[C@@H]1CCC(=O)N1)C(=O)N[C@@H](CCCNC(=N)N)C(N)=O
# Tests used:
# [1] = test system: Hdh-TKRL-mediated phosphorylation of ERK1/2; experiment: Western blotting of ERK1/2 phosphorylation in Hdh-TKRL-transfected HEK293 cells; format: cell-based, Human; details: inhibitor 10^-5 M pre-incubated 60 min, then Hdh-TK2-2 for 5 min, western blot
# Procedure: (§1) HEK293 cells were seeded into 6-well plates (0.3 × 10^6 cells/well) and transfected with 3 μg of pcDNA3-HA-Hdh-TKR plasmids or vehicle pcDNA3-HA plasmid as described for the luciferase reporter assays. At 24 h after transfection, the cells were incubated with serum-free DMEM for 6 h at 37°C and then exposed to a PKA inhibitor (H89, 10^-5 M; Sigma-Aldrich) or PKC inhibitor (Gö6983, 10^-5 M; Sigma-Aldrich) for 60 min. After the medium was replace with fresh serum-free DMEM, the cells were exposed to Hdh-TK-2-2 peptide (5×10^-9 or 10^-7 M) or TPA (10^-7 M) for a further 5 min. The methods employed for cell lysate preparation, polyacrylamide gel electrophoresis, protein transfer to nitrocellulose membranes, and membrane washing were from a previous report ([39]). The membranes were incubated with a monoclonal mouse p44/42 MAPK, rabbit phospho-p44/42 MAPK (ERK1/2) (Thr202/Tyr204) (Cell Signaling, Danvers, MA, USA), or mouse GAPDH (Santa Cruz Biotechnology, Santa Cruz, CA, USA) primary antibody at 4°C for 16 h, followed by incubation with goat anti-mouse IgG-HRP or goat anti-rabbit IgG-HRP secondary antibody (Santa Cruz Biotechnology, Santa Cruz, CA, USA) at room temperature for 2 h. […]
# [2] = test system: Hdh-TKRS-mediated phosphorylation of ERK1/2; experiment: Western blotting of ERK1/2 phosphorylation in Hdh-TKRS-transfected HEK293 cells; format: cell-based, Human; details: inhibitor 10^-5 M pre-incubated 60 min, then Hdh-TK2-2 for 5 min, western blot
# Procedure: as §1
# Hdh-TKRS [3] = experiment: CRE-Luc luciferase reporter assay in Hdh-TKRS-expressing HEK293 cells; format: cell-based, Haliotis discus hannai; details: for EC50: HEK293 cells, peptide treatment 6 h, Supplementary Table 3, read-out: EC50 for Hdh-TKRS activation, CRE-Luc reporter
# Procedure: (§2) Human embryonic kidney 293 (HEK293) cells were maintained in Dulbecco’s modified Eagle medium (DMEM; Gibco, Loughborough, UK) containing 10% fetal bovine serum (FBS; Hyclone, GE Healthcare, Chicago, IL, USA) and 1% penicillin/streptomycin (P/S; Invitrogen) at 37°C in 5% CO2. Sixteen hours before transfection, HEK293 cells were seeded into 24-well plates (5 × 10^4 cells/well). Transfection and luciferase activities were analyzed as previously described ([39]). Briefly, HEK293 cells were transfected with 100 ng of pcDNA3-HA expression plasmid containing Hdh-TKR (pcDNA3-HA-Hdh-TKR) or vehicle pcDNA3-HA plasmid using 0.9 μL of a polyethyleneimine transfection reagent (Sigma-Aldrich, St. Louis, MO, USA), along with 100 ng of a luciferase reporter plasmid containing cAMP response element (CRE-Luc) or serum response element (SRE-Luc), and 100 ng of a pRSV-β-galactosidase expression plasmid as an internal control. At 3 h after transfection, the culture medium was replaced by new DMEM with 1% P/S and 10% FBS, and the HEK293 cells were cultured for a further 30 h and then maintained in DMEM without FBS for 16 h. Finally, the HEK293 cells were treated with synthesized peptides, forskolin (Sigma-Aldrich), 12-O-tetradecanoylphorbol-13-acetate (TPA; Sigma-Aldrich), or an equal volume of peptide-free medium (as vehicle control) for 6 h. Luciferase activity was analyzed using a microplate-luminometer (Berthold Tech., Bad Wildbad, Germany) and normalized to the β-galactosidase activity, detected by absorbance at 405 nm using a microplate reader (Tecan, Mannedorf, Switzerland).
# Hdh-TKRL [4] = experiment: CRE-Luc luciferase reporter assay in Hdh-TKRL-expressing HEK293 cells; format: cell-based, Haliotis discus hannai; details: for EC50: HEK293 cells, peptide treatment 6 h, Supplementary Table 4, read-out: EC50 for Hdh-TKRL activation, CRE-Luc reporter
# Procedure: as §2
# Hdh-TKRL [5] = experiment: Ca2+ mobilization assay (aequorin luminescence) in Hdh-TKRL-transfected CHO-K1 cells; format: cell-based, Haliotis discus hannai; details: Hdh-TKRL- and aequorin-expressing CHO-K1 cells; luminescence relative to maximal response at 10^-6 M; n = 3 or 4; read-out: EC50 on intracellular Ca2+ mobilization
# Procedure: (§3) Ca^2+ mobilization assays were performed as described previously ([39]). Briefly, Chinese hamster ovary K1 (CHO-K1) cells were maintained in DMEM-F12 Nutrient Mixture Ham supplemented with 10% FBS (Hyclone) and 1% P/S (Invitrogen) at 37°C in 5% CO2. Cells were grown in a monolayer to 60% confluency in 100 mm dishes (1.5 × 10^6 cells) and transiently transfected with 2 μg of pcDNA3-HA-Hdh-TKR plasmid with 2 μg of a Ca^2+-reporter aequorin plasmid and 2 μg of Gαq plasmid using 18 μL of FuGENE6 transfection reagent (Promega). The cells were washed in assay buffer including phenol red-free DMEM/F-12 with 0.1% bovine serum albumin (BSA) and 1% P/S and collected by brief centrifugation. Probenecid (1.25 mM final concentration, Invitrogen) and coelenterazine (5 μM, Gold Biotech., St. Louis, MO, USA) were added to resuspended CHO-K1 cells in 5 mL of assay buffer and the cells were gently agitated for 2.5 h using a magnetic stirrer at room temperature and shielded from light. […] While stirring gently, 50 μL of the cell suspension was injected into a luminescence microplate reader (Berthold Tech.), and luminescence was recorded for 20 s and for a further 10 s after injection of the assay buffer, including 0.2% Triton X-100 to measure the total Ca^2+ response. […]
# Hdh-TKRS [6] = experiment: SRE-Luc luciferase reporter assay in Hdh-TKRS-expressing HEK293 cells; format: cell-based, Haliotis discus hannai; details: for EC50: HEK293 cells, peptide treatment 6 h, Supplementary Table 3, read-out: EC50 for Hdh-TKRS activation, SRE-Luc reporter
# Procedure: as §2
# Hdh-TKRL [7] = experiment: SRE-Luc luciferase reporter assay in Hdh-TKRL-expressing HEK293 cells; format: cell-based, Haliotis discus hannai; details: for EC50: HEK293 cells, peptide treatment 6 h, Supplementary Table 4, read-out: EC50 for Hdh-TKRL activation, SRE-Luc reporter
# Procedure: as §2
# Hdh-TKRS [8] = experiment: Ca2+ mobilization assay (aequorin luminescence) in Hdh-TKRS-transfected CHO-K1 cells; format: cell-based, Haliotis discus hannai; details: Hdh-TKRS- and aequorin-expressing CHO-K1 cells; luminescence relative to maximal response at 10^-6 M; n = 3 or 4; read-out: EC50 on intracellular Ca2+ mobilization
# Procedure: as §3
# [9] = target: Hdh-TKRL (tachykinin receptor, long isoform) (Haliotis discus hannai)
# [10] = target: Hdh-TKRS (tachykinin receptor, short isoform) (Haliotis discus hannai)
# [11] = Hdh-TKRS-transfected HEK293 cells, n = 3
# [12] = Hdh-TKRL-transfected HEK293 cells, n = 3
molecule,measurement,setting,value
COc1ccc2c(c1)c(C1=C(c3c[nH]c4ccccc34)C(=O)NC1=O)cn2CCCN(C)C [Gö6983],effect of inhibitor on Hdh-TKRL-mediated phosphorylation of ERK1/2,[1],almost abolished
same,effect of inhibitor on Hdh-TKRS-mediated phosphorylation of ERK1/2,[2],almost abolished
O=S(=O)(NCCNC/C=C/c1ccc(Br)cc1)c1cccc2cnccc12 [H89],effect of inhibitor on Hdh-TKRL-mediated phosphorylation of ERK1/2,[1],decreased
CC(C)[C@H](NC(=O)CNC(=O)[C@H](Cc1c[nH]cn1)NC(=O)[C@H](Cc1ccccc1)NC(=O)CNC(=O)[C@H](Cc1ccccc1)NC(=O)[C@H](Cc1c[nH]cn1)NC(=O)[C@@H]1CCCN1C(=O)[C@@H]1CCC(=O)N1)C(=O)N[C@@H](CCCNC(=N)N)C(N)=O [Hdh-TK1-3] ([pGlu]PHFGFHGVR-NH2),EC50,Hdh-TKRS [3],15.1 nM
same,EC50,Hdh-TKRL [4],284 nM
same,EC50,Hdh-TKRL [5],1.1 nM
same,EC50,Hdh-TKRS [6],171 nM
same,EC50,Hdh-TKRL [7],155 nM
same,EC50,Hdh-TKRS [8],1.7 nM
CC(C)[C@H](NC(=O)[C@H](Cc1ccccc1)NC(=O)CNC(=O)[C@H](Cc1ccccc1)NC(=O)[C@H](Cc1c[nH]cn1)NC(=O)[C@H](CCCNC(=N)N)NC(=O)CN)C(=O)NCC(=O)N[C@@H](CO)C(=O)N[C@@H](CCCNC(=N)N)C(N)=O [Hdh-TK2-1] (H-GRHFGFVGSR-NH2),EC50,Hdh-TKRS [3],180 nM
same,EC50,Hdh-TKRL [4],1100 nM
same,EC50,Hdh-TKRL [5],5.2 nM
same,EC50,Hdh-TKRS [6],3340 nM
same,EC50,Hdh-TKRL [7],141 nM
same,EC50,Hdh-TKRS [8],4 nM
"APGWamide [abalone APGWamide peptide used as a negative control, reference compound]",CRE-Luc reporter activity (in words),Hdh-TKRS [3]; [11],did not activate
same,CRE-Luc reporter activity (in words),Hdh-TKRL [4]; [12],did not activate
same,SRE-Luc reporter activity (in words),Hdh-TKRS [6]; [11],did not activate
same,SRE-Luc reporter activity (in words),Hdh-TKRL [7]; [12],did not activate
B1,EC50 of intracellular Ca2+ mobilization (aequorin luminescence) in Hdh-TKRL-transfected CHO-K1 cells,[9],0.7 nM
same,EC50 of intracellular Ca2+ mobilization (aequorin luminescence) in Hdh-TKRS-transfected CHO-K1 cells,[10],1.2 nM
B2,EC50 of intracellular Ca2+ mobilization (aequorin luminescence) in Hdh-TKRL-transfected CHO-K1 cells,[9],5.2 nM
same,EC50 of intracellular Ca2+ mobilization (aequorin luminescence) in Hdh-TKRS-transfected CHO-K1 cells,[10],4 nM
B3,EC50 of intracellular Ca2+ mobilization (aequorin luminescence) in Hdh-TKRL-transfected CHO-K1 cells,[9],9.4 nM
same,EC50 of intracellular Ca2+ mobilization (aequorin luminescence) in Hdh-TKRS-transfected CHO-K1 cells,[10],14.7 nM
B4,EC50 of intracellular Ca2+ mobilization (aequorin luminescence) in Hdh-TKRL-transfected CHO-K1 cells,[9],32 nM
same,EC50 of intracellular Ca2+ mobilization (aequorin luminescence) in Hdh-TKRS-transfected CHO-K1 cells,[10],46 nM
B5,EC50 of intracellular Ca2+ mobilization (aequorin luminescence) in Hdh-TKRL-transfected CHO-K1 cells,[9],1.1 nM
same,EC50 of intracellular Ca2+ mobilization (aequorin luminescence) in Hdh-TKRS-transfected CHO-K1 cells,[10],1.7 nM
